# Reference: EP1857556A1, “Genetically engineered Pseudomonas fluorescens strains as biosensor for trehalose detection and quantification in a sample” (INSTITUT NATIONAL DE LA RECHERCHE AGRONOMIQUE (INRA), priority 2006, dated 2007)
# Key:
# [1] = tested on: Pyt 5; assay: visual assessment of β-galactosidase activity (blue color intensity) on X-gal buffered CAA medium, mutant Pyt 5; assay type: cell-based, P. fluorescens ATCC 17400; design: β-galactosidase activities: key: -: no induction; (+): faintish induction; +: weak induction; ++: highly induction; +++: extremely strong induction
# From the text: (§1) So, Pyt 6 was chosen as a good candidate to develop the biosensor test in the further study.
# (§2) Table 1. Influence of added sugars in buffered (pH 7) CAA medium for the β-galactosidase activities of P. fluorescens ATCC 17400 derived mutants on visual assessment of blue color intensity
# [2] = tested on: Pyt 6; assay: visual assessment of β-galactosidase activity (blue color intensity) on X-gal buffered CAA medium, mutant Pyt 6; as to β-galactosidase activities: key: -: no induction; (+): faintish induction; +: weak induction; ++: highly induction; +++: extremely strong induction; assay type: cell-based, P. fluorescens ATCC 17400
# From the text: as §1, §2
# [3] = tested on: Pyt 6; assay: semi-quantitative high-throughput X-Gal colorimetric trehalose assay with Pyt 6; assay type: cell-based, Pseudomonas fluorescens; settings: semi-quantitative method; for visible induction: Pyt 6, sugars (2 %), X-Gal, 18 hours at 27°C
# Description: For instance, the Inventors have developed a semi-quantitative method of assaying trehalose in a sample. Said method comprises the steps consisting of: • a) contacting the sample with a suspension of Pyt 6, precultured to exponential growth, at OD 600 nm = about 0.1, with a ratio about 1:20 (preferably 10 µl of the sample, optionally diluted, are contacted with 190 µl of the Pyt 6 suspension atOD600nm=0.1); • b) adding about 2 µl X-Gal (20 mg/ml); • c) incubation the mixture during 16-20 hours, preferably18 hours, at 27°C (preferably with agitation at 150 rpm), • c) observing and/or measuring the blue coloration elicited by X-Gal processing; and • d) comparing the blue coloration observed in step c) with that elicited by a standard of trehalose contacted with a suspension of Pyt 6, precultured to exponential growth, at OD 600 nm = about 0.1, with a ratio 1:10 (preferably 10 µl of the standards are contacted with 190 µl of the Pyt 6 suspension at OD 600 nm = 0.1) and X-Gal (2 µl, 20 mg/ml); whereby if the blue coloration observed in step c) is above that of observed with the standard, then the concentration of trehalose in the sample is above trehalose concentration in the standard.
# From the knowledge derived from the use of the qualitative and quantitative methods, the inventors have developed a semi-quantitative method that allows a high throughput pre-screening of the presence of trehalose in liquid samples. The invention helps also to the check quickly the quality of controls without trehalose before applying the quantitative method. The semi-quantitative method combines a direct colorimetric observation with the use of the chromogenic X-Gal and the conditions of Pyt 6 culture derived from the quantitative method. The detection limit is 0.5 mM trehalose in 10 µl of the tested liquid sample (biological or other extracts).
# This method was carried out according to the following steps : • preculture of Pyt 6 to exponential growth in the BCAA medium at 27°C, • distribution of 190 µl of this Pyt 6 suspension at OD 600 nm = 0.1 in wells of a 96 well microtiter plate , • incorporation of 2 µl X-Gal (20 mg/ml) in each well, • incorporation of 10 µl of a standard range of trehalose (0.1 mM to 2 mM trehalose) or 10 µl of tested samples or 10 µl of pure water or culture medium for the blank control, • incubation during 18 hours at 150 rpm at 27°C, • comparative observation of the intensity of the blue color in wells, • the lower detection limit is 0.5 mM trehalose in the tested sample.
# [4] = effect of boiling on trehalose, read out with Pyt 6 luminescence (Figure 8); assay type: physicochemical; settings: boiling of the samples, 5 min at 100°C (Figure 8)
# Description: The extract derived from 1 g of Ggt mycelium cultured for 7 days were tested. For the positive control, 10 ng of purified β-gal and 1 mM trehalose solution with Pyt 6 were assessed. Results shown are mean values from 3 repeated counting. Error bars indicate standard deviations.
# The fungal extraction was performed as follows. Mycelium are pre-cultured (Gaeumannomyces. graminis (Ggt): 5 days on PDA (Potato Dextrose 39 g/L, agar 20 g/L); Laccaria bicolor. (Lb) 10 days on P5 (0.25 g Di NH4 tartrate, 0.5 g KH2PO4, 0.25 g MgSO4 7 H2O, 2.5 g maltose D+, 10 g glucose D+, 0.5 ml thiamine-HCl (100 mg/L), 0.5 ml Kanieltra oligoelement solution (100 ml/L), 10 g agar, 480 ml H2O, adjusted pH to 5.5 with HCl or NaOH). Growing mycelium plugs are explanted to BCAA agar (as defined above) with cellophane membrane or the glass bead/membrane system with liquid BCAA. The cellophane membranes were previously boiled in ultra-pure water + EDTA (372 mg.l-1) during 15 minutes, washed abundantly with ultra-pure water and sterilised by autoclaving twice. […]
# Boiling of the fungal extracts is expected to denature endogenous β-gal and therefore avoid interference with trehalose measurement. […] Additionally, it was observed that when Ggt mycelium extract (diluted to 1/10) was boiled, no endogenous β-galactosidase activity was ever detected (Figure 8).
structure (smiles),measurement,setting,value
OC[C@H]1O[C@H](O[C@H]2[C@H](O)[C@@H](O)C(O)O[C@@H]2CO)[C@H](O)[C@@H](O)[C@@H]1O (mixture of isomers) [maltose],β-galactosidase activities,"[1]; Pyt 5, 0.2 % maltose added to buffered (pH 7) CAA medium",++
same,β-galactosidase activities,"[1]; Pyt 5, 0.5% maltose added to buffered (pH 7) CAA medium",++
same,treA induction,"[1]; Pyt 5, visual assessment on X-gal medium",weak induction
same,β-galactosidase activities,"[2]; Pyt 6, 0.2 % maltose added to buffered (pH 7) CAA medium",-
same,β-galactosidase activities,"[2]; Pyt 6, 0.5% maltose added to buffered (pH 7) CAA medium",-
same,treA expression,[2]; strain as received under the label Pyt 6 (storage tubes inverted),triggered
same,visible induction,[3],no visible induction
O=C[C@@H](O)[C@H](O)[C@H](O)CO [arabinose],visible induction,[3],no visible induction
O=C(CO)[C@@H](O)[C@H](O)[C@H](O)CO [fructose],visible induction,[3],no visible induction
O=C[C@H](O)[C@@H](O)[C@@H](O)[C@H](O)CO [galactose],visible induction,[3],no visible induction
OCC(O)CO [glycerol],visible induction,[3],no visible induction
"OC[C@H]1O[C@H](O[C@H]2O[C@H](CO)[C@@H](O)[C@H](O)[C@H]2O)[C@H](O)[C@@H](O)[C@@H]1O [trehalose, Trehalose]",β-galactosidase activities,"[1]; Pyt 5, 10 mM trehalose added to buffered (pH 7) CAA medium",+++
same,β-galactosidase activities,"[1]; Pyt 5, 10mM trehalose together with 0.2 % glucose",+++
same,β-galactosidase activities,"[1]; Pyt 5, 10 mM trehalose together with 0.2 % maltose",+++
same,β-galactosidase activities,"[1]; Pyt 5, 10 mM trehalose together with 0.5% maltose",+++
same,β-galactosidase activities,"[1]; Pyt 5, 10 mM trehalose together with 2 % glucose",+++
same,treA expression,[1]; strain as received under the label Pyt 5 (storage tubes inverted),specifically induced
same,β-galactosidase activities,"[2]; Pyt 6, 10 mM trehalose added to buffered (pH 7) CAA medium",+++
same,β-galactosidase activities,"[2]; Pyt 6, 10mM trehalose together with 0.2 % glucose",+++
same,β-galactosidase activities,"[2]; Pyt 6, 10 mM trehalose together with 0.2 % maltose",+++
same,β-galactosidase activities,"[2]; Pyt 6, 10 mM trehalose together with 0.5% maltose",+++
same,β-galactosidase activities,"[2]; Pyt 6, 10 mM trehalose together with 2 % glucose",+++
same,treA induction,"[2]; Pyt 6, trehalose 10^-3 M, visual assessment on X-gal medium",treA induction
same,detection limit,[3]; trehalose in 10 µl of the tested liquid sample,0.5 mM
same,stability to boiling,[4],not affected
